This note sets out measurements from ChEMBL document CHEMBL3526014, “Correlation between bilirubin glucuronidation and estradiol-3-gluronidation in the presence of model UDP-glucuronosyltransferase 1A1 substrates/inhibitors” (Drug Metab Dispos, 2011).

The term IC50 denotes the concentration that gives 50% inhibition. As usually defined, the Km is the substrate concentration at which the rate is half of its maximum.

The target of series [1] is T1, UDP-glucuronosyltransferase 1A1 (Homo sapiens, UniProt P22309).
T1 sequence (P22309 whole entry): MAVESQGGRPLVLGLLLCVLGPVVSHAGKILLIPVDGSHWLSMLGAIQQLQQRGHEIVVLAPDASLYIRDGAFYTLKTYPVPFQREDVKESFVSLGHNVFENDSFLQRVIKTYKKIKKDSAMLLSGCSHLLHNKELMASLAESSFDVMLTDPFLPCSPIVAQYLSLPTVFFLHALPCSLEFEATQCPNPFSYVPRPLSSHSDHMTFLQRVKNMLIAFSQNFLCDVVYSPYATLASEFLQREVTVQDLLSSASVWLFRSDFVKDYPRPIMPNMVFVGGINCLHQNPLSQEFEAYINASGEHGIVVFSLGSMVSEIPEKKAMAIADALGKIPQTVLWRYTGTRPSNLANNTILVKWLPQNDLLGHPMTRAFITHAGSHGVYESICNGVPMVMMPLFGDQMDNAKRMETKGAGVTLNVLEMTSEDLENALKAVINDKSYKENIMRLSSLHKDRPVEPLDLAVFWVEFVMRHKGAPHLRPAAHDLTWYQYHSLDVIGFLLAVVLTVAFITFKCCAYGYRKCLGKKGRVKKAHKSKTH
In words: Inhibition of human recombinant UGT1A1 expressed in HEK293 cells assessed as reduction in estradiol 3-glucuronidation by LC-MS/MS method. It counts as ADME, cell-based.

Series [2] concerns the target T1, UDP-glucuronosyltransferase 1A1. In words: Inhibition of human recombinant UGT1A1 expressed in HEK293 cells assessed as reduction in bilirubin glucuronidation by LC-MS/MS method. It counts as ADME, cell-based.
Series [3] shares this target. In words: Inhibition of human recombinant UGT1A1 expressed in HEK293 cells assessed as reduction in estradiol 3-glucuronidation using 4 to 75 uM estradiol by LC-MS/MS method. The class given is ADME, cell-based.
For the next series, the target named is T2, UGT1A1 (Homo sapiens, UniProt P22309).
T2 sequence (P22309 whole entry): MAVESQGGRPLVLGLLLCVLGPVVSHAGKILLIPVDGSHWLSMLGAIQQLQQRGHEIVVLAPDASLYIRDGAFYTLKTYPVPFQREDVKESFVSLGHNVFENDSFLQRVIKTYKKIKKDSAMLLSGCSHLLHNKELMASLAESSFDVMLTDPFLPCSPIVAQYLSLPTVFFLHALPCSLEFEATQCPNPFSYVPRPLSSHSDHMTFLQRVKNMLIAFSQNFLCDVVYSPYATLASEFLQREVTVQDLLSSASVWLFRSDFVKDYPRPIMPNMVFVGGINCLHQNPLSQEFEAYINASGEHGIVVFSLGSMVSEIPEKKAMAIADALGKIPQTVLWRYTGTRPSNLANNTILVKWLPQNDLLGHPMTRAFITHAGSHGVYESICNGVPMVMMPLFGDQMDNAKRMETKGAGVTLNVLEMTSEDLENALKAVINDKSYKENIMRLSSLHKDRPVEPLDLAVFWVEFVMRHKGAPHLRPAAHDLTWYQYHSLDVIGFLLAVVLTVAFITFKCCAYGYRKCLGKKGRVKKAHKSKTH
In words: Activation of human recombinant UGT1A1 expressed in HEK293 cells assessed as increase in estradiol 3-glucuronidation using 7.5 uM estradiol by LC-MS/MS method relative to untreated control. The class given is ADME, cell-based. The following applies: probe estradiol (3-glucuronidation).

The target of series [4] is T1, UDP-glucuronosyltransferase 1A1. The series is described as follows: Activation of human recombinant UGT1A1 expressed in HEK293 cells assessed as increase in estradiol 3-glucuronidation by LC-MS/MS method relative to untreated control. It counts as ADME, cell-based.
The target is the same in series [5]. The series is described as follows: Activation of human recombinant UGT1A1 expressed in HEK293 cells assessed as increase in estradiol 3-glucuronidation using 15 uM estradiol by LC-MS/MS method relative to untreated control. It counts as ADME, cell-based.
Series [6] has the same target. The series is described as follows: Activation of human recombinant UGT1A1 expressed in HEK293 cells assessed as increase in estradiol 3-glucuronidation at 6.25 uM by LC-MS/MS method. It counts as ADME, cell-based. The following applies: hek293, 6.25 µM.
Series [7] shares this target. The series is described as follows: Activation of human recombinant UGT1A1 expressed in HEK293 cells assessed as increase in estradiol 3-glucuronidation at 6.25 uM using 4 uM estradiol by LC-MS/MS method relative to untreated control. It counts as ADME, cell-based. Conditions: hek293, 6.25 µM; call rule not given here.
Series [8] shares this target. In words: Inhibition of human recombinant UGT1A1 expressed in HEK293 cells assessed as reduction in estradiol 3-glucuronidation at 50 uM using >15 uM estradiol by LC-MS/MS method. The class given is ADME, cell-based. The following applies: hek293, 50 µM.
Substrate in series [9]: CCc1c2c(nc3ccc(O)cc13)-c1cc3c(c(=O)n1C2)COC(=O)[C@]3(O)CC
The series is described as follows: Drug metabolism assessed as UGT1A1 (unknown origin)-mediated compound glucuronidation. The class given is ADME, Homo sapiens.

Turning to `O=C1c2ccc(O)cc2C(=O)c2ccc(O)cc21`, the IC50 was 4 µM in series [1] (read-out: IC50) and 3.6 µM in series [2].
For the molecule `N[C@@H](Cc1cc(I)c(Oc2cc(I)c(O)c(I)c2)c(I)c1)C(=O)O` [LEVOTHYROXINE], the IC50 in series [1] (read-out: IC50) was 5.6 µM; in series [2], 4.9 µM.
Regarding `O=C1NC(=O)C(c2ccccc2)(c2ccc(O)cc2)N1` (configuration not stated), the IC50 turned out to be 110 µM in [1] (read-out: IC50) and 120 µM in [2].
Turning to `Cc1cc(=O)oc2cc(O)ccc12` [HYMECROMONE], the IC50 in series [1] (read-out: IC50) and in [2] was 100 µM each time.
With `CC(=O)N1CCN(c2ccc(OCC3COC(Cn4ccnc4)(c4ccc(Cl)cc4Cl)O3)cc2)CC1` (configuration not stated) [KETOCONAZOLE], the IC50 was determined as 13 µM in series [1] (read-out: IC50) and 27 µM in series [2].
On the same counts, the results for `Cc1nnc(C(=O)NC(C)(C)c2nc(C(=O)NCc3ccc(F)cc3)c(O)c(=O)n2C)o1` are 190 µM and 170 µM.
For the molecule `CCc1c2c(nc3ccc(O)cc13)-c1cc3c(c(=O)n1C2)COC(=O)[C@]3(O)CC` [7-ETHYL-10-HYDROXYCAMPTOTHECIN], the IC50 result in series [1] (hek293) was “Not Active”; in series [2], 360 µM. In addition, the “inhibition (INH)” value in series [3] turned out to be 40%.
As for `Nc1nc2ccc(OC(F)(F)F)cc2s1` [RILUZOLE], the values for the half-maximal inhibitory concentration (IC50) in series [1] (read-out: IC50) and in series [2] were 160 µM and 180 µM, respectively.
For `CC(C)=CCC/C(C)=C/CC/C(C)=C/CO` [FARNESOL] the same measures were 40 µM and 47 µM.
In the case of `O=c1cc(-c2ccccc2)oc2cc(O)c(O)c(O)c12` [BAICALEIN], the IC50 was 4.4 µM in [1] (read-out: IC50) and 7 µM in series [2].
In the case of `Oc1cccc2ccccc12` [1-NAPHTHOL], the IC50 came out at 280 µM in series [1] (read-out: IC50) and 240 µM in [2].
Turning to `O=C(O)c1cccnc1Nc1cccc(C(F)(F)F)c1` [NIFLUMIC ACID], the IC50 was 13 µM in series [1] (read-out: IC50) and 53 µM in series [2].
On to `C#C[C@]1(O)CC[C@H]2[C@@H]3CCc4cc(O)ccc4[C@H]3CC[C@@]21C` [ETHINYL ESTRADIOL], for which the Activity on UGT1A1 was not above 140%; in series [4], “Active”; in [5], 128%. Moreover, the IC50 in [1] (read-out: IC50) was 44 µM; in series [2], 21 µM.
Consider `O=c1c(-c2ccc(O)cc2)coc2cc(O)ccc12` [DAIDZEIN], for which the results for the Activity result in series [6], in series [7] and in series [4] were “Active”, 392% and “Active”, respectively. Moreover, the “inhibition (INH)” value in series [8] is reported as “Active”. For the same molecule, the IC50 in [1] (read-out: IC50) is 120 µM; in series [2], 7.3 µM.

B1: UDP-glucuronosyltransferase 1A1 (Homo sapiens) (protein)
chain: MAVESQGGRPLVLGLLLCVLGPVVSHAGKILLIPVDGSHWLSMLGAIQQLQQRGHEIVVLAPDASLYIRDGAFYTLKTYPVPFQREDVKESFVSLGHNVFENDSFLQRVIKTYKKIKKDSAMLLSGCSHLLHNKELMASLAESSFDVMLTDPFLPCSPIVAQYLSLPTVFFLHALPCSLEFEATQCPNPFSYVPRPLSSHSDHMTFLQRVKNMLIAFSQNFLCDVVYSPYATLASEFLQREVTVQDLLSSASVWLFRSDFVKDYPRPIMPNMVFVGGINCLHQNPLSQEFEAYINASGEHGIVVFSLGSMVSEIPEKKAMAIADALGKIPQTVLWRYTGTRPSNLANNTILVKWLPQNDLLGHPMTRAFITHAGSHGVYESICNGVPMVMMPLFGDQMDNAKRMETKGAGVTLNVLEMTSEDLENALKAVINDKSYKENIMRLSSLHKDRPVEPLDLAVFWVEFVMRHKGAPHLRPAAHDLTWYQYHSLDVIGFLLAVVLTVAFITFKCCAYGYRKCLGKKGRVKKAHKSKTH
Regarding B1, in [9], the Km turned out to be 25 µM.
